pIC50: −log10 of the molar value. Entries after “also recorded” stand apart in the source; their conditions may differ.
Experiments:
DA receptor = test: Radioligand binding assay: displacement of ^3 H-5,6-dihydroxy-N,N-dipropyl-2-aminotetralin (DA receptor agonist) from homogenates of rat corpus striatum; details: for pIC50: mean of 3 independent experiments each in triplicate, 10^-11 to 10^-5 M, read-out: IC50 (concentration of drug required to inhibit the specific binding by 50%)
Method: The ability of the above compounds to displace the specific binding of ^3 H-5,6-dihydroxy-N,N-dipropyl-2-aminotetralin, a potent DA receptor agonist (Feenstra et al., Life Sci., 32, 1313 (1983)) to homogenates of rat corpus striatum was studied.
The assay was performed essentially according to the method of Leysen and Gommeran J. Neurochem. 36, 201 (1981) for ^3 H-apomorphine binding.
The IC50 is the concentration of drug required to inhibit the specific binding by 50%. The results are presented as the mean values of 3 independent experiments each analyzed in triplicate over the concentration range 10^-11 to 10^-5 M.

[1] = tested on: homovanillic acid, HVA (corpus striatum); test: Effect on dopamine metabolism: lowering of striatal HVA levels; type: in vivo, Female Wistar rats; details: for HVA % control / HVA content of corpus striatum: injected, 60 min, mean ± S.E.M.
Method: Dopamine agonists are known to produce a lowering of the striatal levels of one of the main metabolites of dopamine, homovanillic acid, HVA, (Feenstra et al., 1983 Arch. Pharmacol., 324, 108).
Female Wistar rats (160-180g) were injected with the drugs under test dissolved in saline and were then decapitated 60 min later. The HVA content of the corpus striatum was determined according to the method of Westerink and Mulder (J. Neurochem., 1981 36, 1449).

dopamine receptor = test: Dopamine receptor agonist activity, overall conclusion from various tests; details: pre- and post-synaptic dopaminergic tests
Method: The dopaminergic activity of three analogues (A,B,C) was evaluated in comparison with the indolic structural analogue RU 29717 (Nedelec et al., 1983, J. Med. Chem., 26, 522) in three test systems. Compounds B and C are within the scope of the present invention.

[2] = tested on: presynaptic dopamine receptors; test: Presynaptic DA activity in the GBL model: counteracting GBL-induced rise in striatal DOPA levels; type: in vivo, rat; details: for % Reversal vs. GBL group / DOPA (striatal level): 0.2 μmol/kg; for % Reversal vs. GBL group: GBL + NSD 1015 group = 0, NSD 1015 group = 100; for DOPA (striatal level): GBL model, NSD 1015 as decarboxylase inhibitor
Method: The ability of a dopamine agonist to counteract the gamma-butyrolactone (GBL) induced rise in DOPA levels in the rat striatum is an indication of its activity at presynaptic dopamine receptors. (Walters and Roth, 1976 Arch. Pharmacol., 296, 5).
The experiments were performed in rats according to the method of Walters and Roth (ibid). The striatal levels of DOPA were determined using the method of Westerink and Mulder (1981 J. Neurochem. 36, 1449). NSD 1015 was used as decarboxylase inhibitor.

[3] = literature background; cited from earlier work
dopaminergic = details: literature background; cited from earlier work
[4] = tested on: adrenergic and serotonergic; details: literature background; cited from earlier work

Compound | pIC50 (DA receptor) | HVA % control ([1]; 0.4 μmol/kg) [% control] | HVA content of corpus striatum ([1]; 0.4 μmol/kg) [µg/g] | dopamine agonist activity (general conclusion in words) (dopamine receptor) | potency in binding assay (conclusion in words) (DA receptor) | % Reversal vs. GBL group [2] [%] | DOPA (striatal level) [2] [µg/g] | HVA % control ([1]; 0.2 μmol/kg) [% control] | HVA content of corpus striatum ([1]; 0.2 μmol/kg) [µg/g] | activity on HVA levels (conclusion in words) ([1]; conclusion) | potency in GBL model (conclusion in words) ([2]; conclusion) | emetic activity (in words) [3] | dopaminergic agonist activity (in words) (dopaminergic) | adrenergic and serotonergic activity (in words) [4]
CN1CCc2cccc3c2[C@H]1Cc1ccc(O)c(O)c1-3 [Apomorphine, reference compound] | 8.49 |  |  |  |  |  |  |  |  |  |  |  |  | 
CCCN1CCOC2c3ccccc3CCC21 (centres unmarked) [Compound A] | 6.96 | 91.8 ± 2.0 | 0.90 ± 0.02 | significantly less active | the least potent | 4.5 | 5.25 ± 0.09 |  |  |  |  |  |  | 
CCCN1CCOC2c3cccc(O)c3CCC21 (centres unmarked) [Compound B] | 7.10 | 98.0 ± 12.2 | 0.96 ± 0.12 | useful levels of dopamine agonist activity | some activity | 17.3 | 4.80 ± 0.37 |  |  |  |  |  |  | 
CCCN1CCOC2c3cc(O)ccc3CCC21 (centres unmarked) [Compound C] | 8.55 | 48.0 ± 1.0 | 0.47 ± 0.01 | useful levels of dopamine agonist activity; also recorded: as active as the known DA agonist RU 29717 |  | 94.6 | 2.08 ± 0.12 | 63.3 ± 4.1 | 0.62 ± 0.04 | comparable in activity to RU 29717 | slightly more potent than RU 29717 |  |  | 
CCCN1CCO[C@@H]2c3cccc4[nH]cc(c34)C[C@H]21 [RU 29717, N-PROPYL-9-OXAERGOLINE, reference compound] | 8.52 | 46.9 ± 2.0 | 0.46 ± 0.02 |  |  | 88.4 | 2.30 ± 0.16 | 51.0 ± 4.1 | 0.50 ± 0.04 |  |  | Its activity as an emetic is a significant problem | extremely potent direct acting dopaminergic agonist, comparing favorably with pergolide | has adrenergic and serotonergic activity
